# Experiments:
# ARPE-19 cells = test: Shield-1 concentration dependent progeny virus production (TCID50 assay); format: cell-based; conditions: rdCMV in ARPE-19 cells and other human primary cells
# Protocol: ARPE-19 cells were infected with the rdCMV viruses at a multiplicity of 0.01 PFU/cell for 1 h, washed twice with fresh medium, and incubated in the growth medium containing 0, 0.05, 0.1 0.5 or 2 μM of Shield-1. Seven days post infection, the cell free virus was collected, and virus titers were determined by TCID50 assay on ARPE-19 cells in the presence of 2 μM of Shield 1.
# Varying concentrations of Shld-1 were used in additional experiments to further assess viral replication in the presence or absence of Shld-1. ARPE-19 cells were infected by the gH expressing CMV that also contained a FKBP derivative fused to an essential protein at MOI of […]. After infection for 1 hour, the cells were washed twice with fresh medium to remove the Shld-1 from the inoculums. The inoculums were then added to ARPE-19 cells cultured in medium containing 0.05, 0.1, 0.5 or 2 μM of Shield-1. Seven days post infection, the cell-free progeny virus in the supernatant was collected and titrated on ARPE-19 cells supplemented with […] of Shield-1. Virus titers were determined by a 50% Tissue Culture Infective Dose (TCID50) assay. Briefly, this dilution assay quantifies the amount of virus required to kill 50% of infected hosts. […] After incubation, the percentage of cell death (i.e. infected cells) was manually observed and recorded for each virus dilution. […]
# FKBP = conditions: tighter binding; Clackson et al., 1998; cited from earlier work
structure (smiles),measurement,setting,value
CC[C@H](C(=O)N1CCCC[C@H]1C(=O)O[C@H](CCc1ccc(OC)c(OC)c1)c1cccc(OCCN2CCOCC2)c1)c1cc(OC)c(OC)c(OC)c1 [Shield-1],Molar concentration of Shield-1 in the culture medium required to sustain viral replication,ARPE-19 cells,greater than 0.1 μM
same,Binding to the F36V derivative compared to wild-type FKBP,FKBP,"about 1,000 fold"
